Assay results taken from patent publication US20240139214A1, “AGENT FOR SUPPRESSING IL-31 PRODUCTION AND PHARMACEUTICAL COMPOSITION CONTAINING THE SAME” (KYUSHU UNIVERSITY, NATIONAL UNIVERSITY CORPORATION, priority 2021, published 2024).

Key:
mouse IL-31 gene = experiment: IL-31 production inhibitory action: IL-31 gene expression by real-time PCR in antigen-stimulated CD4+ T cells from Dock8−/− AND Tg mice; assay type: cell-based
CD4+ T cells = experiment: T cell proliferation assay (PMA and ionomycin, 3H-thymidine incorporation); assay type: cell-based, mouse
Method: (§1) A T cell proliferation assay was performed by culturing CD4^+ T cells (5×10^4 cells) with T cell-depleted irradiated spleen cells (1×10^6 cells) in the presence of phorbol 12-myristate 13-acetate (PMA: 100 ng/ml; Sigma-Aldrich) and ionomycin (1 μg/ml; Sigma-Aldrich) for 66 hours. For the last 18 hours of culture, ^3H-thymidine (0.037 MBq) was added, and the incorporated radioactivity was measured with MicroBeta^2 (PerkinElmer, Inc., Waltham, MS).
as §1, with “hours. Test compounds were added at various final concentrations at the start of culture.” for “hours.”, “MS). […]” for “MS).”

IL-2 gene (Il2) = experiment: IL-2 gene expression in CD4+ T cells from Dock8−/− AND Tg mice (real-time PCR); assay type: cell-based, mouse; conditions: 2.5 μM; FIG. 2B
Method: (§2) Total RNA was isolated using ISOGEN (Nippon Gene Co., Ltd.). For amplification by PCR, RNA samples treated with RNase-free DNase I (Thermo Fisher Scientific) were reverse-transcribed with oligo(dT) primers (TFS) and SuperScript III reverse transcriptase (TFS). Real-time PCR was performed in a CFX Connect™ thermal cycler (BIO-RAD) using SYBR Green PCR Master Mix (Thermo Fisher Scientific). The expression of mouse and human target genes was normalized to expression of Hprt and PPIB genes, respectively. CFX Manager software (ver.3.1) supplied with the instrument was used for analysis.
(§3) CD4^+ T cells (3×10^5 cells) from Dock8^−/− AND Tg mice were cultured with T cell-depleted irradiated spleen cells (5×10^6 cells) containing a test compound (2.5 μM) or a vehicle alone (0.1% DMSO), in the presence of MCC88-103 (3 μg/ml) for 24 hours.

IL-4 gene (Il4) = experiment: IL-4 gene expression in CD4+ T cells from Dock8−/− AND Tg mice (real-time PCR); assay type: cell-based, mouse; conditions: 2.5 μM; FIG. 2B
Method: as §2, §3

[1] = Single-dose toxicity study, oral administration; assay type: in vivo; conditions: 100-mg oral administration
Method: From these, it is determined that compound 1 is a highly safe compound with low cytotoxicity.

[2] = Blood concentration after oral administration; assay type: in vivo; conditions: 100 mg orally, C57BL/6 mice, monitored 24 hours; FIG. 5
Method: After compound 1 (100 mg) was orally administered to C57BL/6 mice (n=3), its blood concentration was monitored for 24 hours.

CAG-OVA mice = experiment: Scratch behavior measurement in CAG-OVA mice injected with activated CD4+ T cells from Dock8−/− OTII Tg mice; assay type: in vivo; conditions: oral administration; FIG. 6
Method: Mice were put into an acrylic cage (11×14×20 cm) for at least 1 hour for acclimation, and their behaviors were videotaped. Playback of the video was used for determination of the total number of scratching bouts per 2 hours. When mice scratch, they stretch their hind paw toward the itchy spot, lean their head toward the hind paw, rapidly move the paw several times, and then lower it back to the floor. A series of these movements was counted as one bout of scratching.
To investigate whether compound 1 has an itch inhibitory action, mice expressing ovalbumin (OVA) under the control of the cytomegalovirus immediate early enhancer-chicken β-actin hybrid promoter (hereafter referred to as “CAG-OVA mice”) were used. Activated CD4^+ T cells (8.0×10^6 per mouse) from Dock8^−/− OTII Tg mice were stimulated with OVA323-339 (ISQAVHAAHAEINEAGR (SEQ ID NO: 2), 1 μg/ml) for 72 hours and intravenously injected into CAG-OVA mice, and the scratch behavior of the mice was measured 1 hour later. As a result, when the activated CD4^+ T cells were injected into CAG-OVA mice, scratch behavior was induced (see the results of the vehicle in FIG. 6).

[3] = system: VEGFA expression in human cancer cell line HT1080; experiment: Hypoxia-induced VEGFA expression in HT1080; assay type: cell-based; conditions: HT1080, 1% O2; FIG. 7
Method: (§4) Human sarcoma cell line HT1080 was provided by Y. Matsumoto (Kyushu University). For hypoxic induction, HT1080 (3×10^5 cells) was cultured in 1% O2 for 12 hours before assays.
as §2
(§5) (1) Although EPAS1 is known to control hypoxic responses through complex formation with aryl hydrocarbon receptor nuclear translocator (ARNT) (NPL 6), EPAS1-mediated Il31 promoter activation is independent of ARNT (NPL 4). FM19G11 is not a direct inhibitor of EPAS1, but is known to suppress the expression of the EPAS1 gene (Epas1) by acting on an unidentified target (NPL 7). Treatment of human cancer cell line HT1080 with […] suppressed VEGFA expression and GLUT1 expression induced by hypoxia (FIG. 7).

[4] = system: GLUT1 expression in human cancer cell line HT1080; experiment: Hypoxia-induced GLUT1 expression in HT1080; assay type: cell-based; conditions: HT1080, 1% O2; FIG. 7
Method: as §4, §2, §5

EPAS1 = target: T1, EPAS1 (Mus musculus, UniProt P97481); experiment: Chromatin immunoprecipitation (ChIP) assay: recruitment of EPAS1 to the IL-31 gene promoter region in CD4+ T cells; assay type: cell-based; conditions: antigen stimulation, 2.5 μM; FIG. 8
T1 construct: endogenous in cells; host or cells: CD4+ T cells from Dock8-/- AND Tg mice, stimulated with MCC88-103
T1 sequence (P97481 whole entry): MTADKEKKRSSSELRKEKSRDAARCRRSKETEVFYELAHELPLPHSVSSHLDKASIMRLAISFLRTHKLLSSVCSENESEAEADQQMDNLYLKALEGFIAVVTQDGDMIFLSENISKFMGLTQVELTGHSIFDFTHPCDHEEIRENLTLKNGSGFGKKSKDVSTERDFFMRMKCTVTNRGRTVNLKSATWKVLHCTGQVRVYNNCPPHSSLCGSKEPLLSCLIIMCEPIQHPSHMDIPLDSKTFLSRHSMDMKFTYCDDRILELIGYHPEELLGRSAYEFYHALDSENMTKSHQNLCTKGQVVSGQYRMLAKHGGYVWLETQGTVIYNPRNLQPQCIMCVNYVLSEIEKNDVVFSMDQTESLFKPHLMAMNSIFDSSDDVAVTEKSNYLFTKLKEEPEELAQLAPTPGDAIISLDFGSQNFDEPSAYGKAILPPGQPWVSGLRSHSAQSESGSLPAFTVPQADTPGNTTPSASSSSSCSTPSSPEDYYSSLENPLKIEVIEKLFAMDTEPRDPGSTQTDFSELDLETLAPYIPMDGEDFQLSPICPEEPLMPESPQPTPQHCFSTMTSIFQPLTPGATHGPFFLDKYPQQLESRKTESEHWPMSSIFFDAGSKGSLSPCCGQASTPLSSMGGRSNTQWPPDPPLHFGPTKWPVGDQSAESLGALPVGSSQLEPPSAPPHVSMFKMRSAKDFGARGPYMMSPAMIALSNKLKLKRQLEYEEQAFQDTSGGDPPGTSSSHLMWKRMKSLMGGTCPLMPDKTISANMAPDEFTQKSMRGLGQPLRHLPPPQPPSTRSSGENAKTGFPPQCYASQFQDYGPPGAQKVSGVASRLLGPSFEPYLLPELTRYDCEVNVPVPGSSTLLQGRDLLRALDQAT
Method: A ChIP assay was performed using activated mouse CD4^+ T cells and immortalized MEFs. Briefly, CD4^+ T cells from Dock8^−/− AND Tg mice were stimulated with MCC88-103 in the presence of a test compound (2.5 μM) or a vehicle alone (0.1% DMSO) for 24 hours. Immortalized MEFs were co-transfected with pcDNA-human EPAS1 (2 μg) in the presence of pGL4.10 IL31 (2 μg). Six hours after transfection, the MEFs were suspended in 10% FCS-containing DMEM that contains a test compound (10 μM) or a vehicle alone (0.1% DMSO) for another 24 hours.
The activated mouse CD4^+ cells and the transfected MEFs were treated with 0.5% formaldehyde at room temperature for 5 minutes and then neutralized with glycine at room temperature for 5 minutes. The resulting cells were washed twice with PBS containing a protease inhibitor, and then nuclei were isolated using a Magna ChIP™ HiSens kit (Millipore, Burlington, MS) according to the manufacturer's protocol. […] After centrifugation at 10,000 g at 4° C. for 10 minutes, the sheared chromatin DNA was obtained and treated with RNase and proteinase K for quantifying DNA content. […]
Magnetic beads preincubated with rabbit polyclonal IgG (ab171870; Abcam) were used for control studies. […] Eluted DNA and input chromatin DNA were analyzed with a CFX Connect™ thermal cycler (BIO-RAD) using SYBR Green PCR Master Mix (Thermo Fisher Scientific) and the following primers. […]

IL-31 = IL-31 production by SEB-stimulated human CD4+ T cells of AD patients (AlphaLISA); assay type: cell-based; conditions: SEB stimulation; FIG. 9A
IL-2 = IL-2 production by SEB-stimulated human CD4+ T cells of AD patients (AlphaLISA); assay type: cell-based; conditions: SEB stimulation; FIG. 9B
[5] = system: human IL-31 gene promoter; experiment: Luciferase reporter assay of human IL-31 gene promoter in MEFs in the presence of human EPAS1; assay type: cell-based; conditions: reporter construct (−1,308 to −1) in MEFs
[6] = Mus musculus, CD4+ T, 24 h, read-out: qPCR results (IL-31 production (%)): based on the case using 0.1% DMSO taken as 100%

Row | SMILES | antigen-induced IL-31 gene expression (in words) (mouse IL-31 gene; 2.5 μM, FIG. 2A) | activity at 0.078 µM (mouse IL-31 gene; [6]) [%] | activity at 0.156 µM (mouse IL-31 gene; [6]) [%] | activity at 0.312 µM (mouse IL-31 gene; [6]) [%] | activity at 0.625 µM (mouse IL-31 gene; [6]) [%] | activity at 1.25 µM (mouse IL-31 gene; [6]) [%] | effect on non-specific T cell proliferation induced by PMA and ionomycin (CD4+ T cells; FIG. 4) | effect on non-specific T-cell proliferation response in vitro (CD4+ T cells; even when used at 50 μM) | effect on expression of IL-2 gene (IL-2 gene (Il2)) | effect on expression of IL-4 gene (IL-4 gene (Il4)) | body weight gain versus non-treated group [1] | histological or biochemical abnormalities [1] | time after oral administration within which compound was eluted into the blood [2] [h] | scratch behavior (number of scratching bouts during 2 hours) (CAG-OVA mice) | VEGFA expression induced by hypoxia [3] | GLUT1 expression induced by hypoxia [4] | recruitment of EPAS1 to the IL-31 gene promoter region (−1336 to −1042) (EPAS1) | IL-31 production by CD4+ T cells of AD patients (IL-31) | IL-2 production by CD4+ T cells of AD patients (IL-2) | activation of the human IL-31 gene promoter [5]
1 | CC(C)c1ccc(/C=N/Nc2ccc(C(=O)O)cc2)cc1 [Compound 1, 4-(2-(4-Isopropylbenzylidene)hydrazinyl)benzoic Acid] | significantly inhibited | 57.5 | 40.1 | 38.7 | 23.9 | 16.4 | neither of these compounds had an adverse effect | did not affect | neither of these compounds had an effect | neither of these compounds had an effect | did not differ from the non-treated group | no histological or biochemical abnormalities | ≤ 12 | significantly suppressed | did not show such an effect of suppressing expression | did not show such an effect of suppressing expression | greatly reduced | reduced IL-31 production in a dose-dependent manner | not affected | significantly suppressed
2 | Cc1ccc(C(=O)COC(=O)c2cccc(NC(=O)c3ccc([N+](=O)[O-])cc3[N+](=O)[O-])c2)cc1 [FM419G11, reference compound] | – | – | – | – | – | – | – | – | – | – | – | – | – | – | suppressed | suppressed | – | – | – | –
